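Growth conditions: 96-well plates. Treatment: test compound, 48 hours, 5 concentrations. Analysis: linear interpolation between bracketing concentrations; unreached endpoints set to highest concentration. TGI: total growth inhibition.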
Key:
Assay in all cases: growth of human tumour cells (NCI), 48 h
K-562 leukemia = test system: K-562 leukemia
786-0 renal = test system: 786-0 renal
NCI-H23 lung = test system: NCI-H23 lung
MDA-N = test system: MDA-N
HCT-116 colon = test system: HCT-116 colon
NCI-H460 lung = test system: NCI-H460 lung
SF-295 CNS = test system: SF-295 CNS
COLO 205 colon = test system: COLO 205 colon
HS 578T breast = test system: HS 578T breast
PC-3 prostate = test system: PC-3 prostate
MDA-MB-231 breast = test system: MDA-MB-231 breast
UO-31 renal = test system: UO-31 renal
A549 NSCLC = test system: A549 NSCLC
OVCAR-8 ovarian = test system: OVCAR-8 ovarian
SN12C renal = test system: SN12C renal
SF-539 CNS = test system: SF-539 CNS
SW-620 colon = test system: SW-620 colon
MDA-MB-435 = test system: MDA-MB-435
M14 melanoma = test system: M14 melanoma
HCT-15 colon = test system: HCT-15 colon
SNB-19 CNS = test system: SNB-19 CNS
UACC-62 melanoma = test system: UACC-62 melanoma
UACC-257 melanoma = test system: UACC-257 melanoma
SK-MEL-28 melanoma = test system: SK-MEL-28 melanoma
OVCAR-5 ovarian = test system: OVCAR-5 ovarian
SK-OV-3 ovarian = test system: SK-OV-3 ovarian
NCI/ADR-RES ovarian = test system: NCI/ADR-RES ovarian
ACHN renal = test system: ACHN renal
NCI-H226 lung = test system: NCI-H226 lung
RXF 393 renal = test system: RXF 393 renal
MCF7 breast = test system: MCF7 breast
SR leukemia = test system: SR leukemia
HOP-92 NSCLC = test system: HOP-92 NSCLC
A498 renal = test system: A498 renal
BT-549 breast = test system: BT-549 breast
HL-60(TB) leukemia = test system: HL-60(TB) leukemia
HOP-62 NSCLC = test system: HOP-62 NSCLC
CCRF-CEM leukemia = test system: CCRF-CEM leukemia
EKVX NSCLC = test system: EKVX NSCLC
MOLT-4 leukemia = test system: MOLT-4 leukemia
IGROV1 ovarian = test system: IGROV1 ovarian
OVCAR-3 ovarian = test system: OVCAR-3 ovarian
OVCAR-4 ovarian = test system: OVCAR-4 ovarian
SK-MEL-5 melanoma = test system: SK-MEL-5 melanoma
HCC-2998 colon = test system: HCC-2998 colon
NCI-H522 lung = test system: NCI-H522 lung
CAKI-1 renal = test system: CAKI-1 renal
RPMI-8226 leukemia = test system: RPMI-8226 leukemia
U251 CNS = test system: U251 CNS
DU-145 prostate = test system: DU-145 prostate
LOX IMVI melanoma = test system: LOX IMVI melanoma
KM12 colon = test system: KM12 colon
SF-268 CNS = test system: SF-268 CNS
HT29 colon = test system: HT29 colon
MALME-3M melanoma = test system: MALME-3M melanoma
SNB-75 CNS = test system: SNB-75 CNS
TK-10 renal = test system: TK-10 renal

O=C(CBr)N1CCC2(CC1)SSC1(CCN(C(=O)CBr)CC1)S2 showed a TGI (K-562 leukemia) of over 100 µM, a TGI (786-0 renal) of 1.81 µM and a TGI (NCI-H23 lung) of 3.13 µM. The TGI (MDA-N) was 2.81 µM, the TGI (HCT-116 colon) was 1.29 µM and the TGI (NCI-H460 lung) was 3.48 µM. It also gave a TGI (SF-295 CNS) of 3.51 µM, a TGI (COLO 205 colon) of 1.13 µM and a TGI (HS 578T breast) of 4.29 µM. For the same compound, the TGI (PC-3 prostate) was 3.38 µM, the TGI (MDA-MB-231 breast) was 4.57 µM and the TGI (UO-31 renal) was 2.01 µM. The TGI (A549 NSCLC) was 3.95 µM, the TGI (OVCAR-8 ovarian) was 4.62 µM and the TGI (SN12C renal) was 3.71 µM. The TGI (SF-539 CNS) was 3.09 µM, the TGI (SW-620 colon) was 1.21 µM and the TGI (MDA-MB-435) was 4.48 µM. The TGI (M14 melanoma) was 2.86 µM, the TGI (HCT-15 colon) was 2.96 µM and the TGI (SNB-19 CNS) was 3.48 µM. It also gave a TGI (UACC-62 melanoma) of 2.96 µM, a TGI (UACC-257 melanoma) of 12.9 µM and a TGI (SK-MEL-28 melanoma) of 4.55 µM. For the same compound, the TGI (OVCAR-5 ovarian) was 3.03 µM, the TGI (SK-OV-3 ovarian) was 2.71 µM and the TGI (NCI/ADR-RES ovarian) was 4.32 µM. It also gave a TGI (ACHN renal) of 2.87 µM.

CCC(CC)C(=O)OC[n+]1ccc(-c2c(COC(=O)NC(C)C)c(COC(=O)NC(C)C)c3n2CCC3)cc1 showed a TGI (NCI-H226 lung) of over 100 µM, a TGI (RXF 393 renal) of over 100 µM and a TGI (K-562 leukemia) of over 100 µM. The TGI (MCF7 breast) was over 100 µM, the TGI (SR leukemia) was over 100 µM and the TGI (HOP-92 NSCLC) was over 100 µM. It also gave a TGI (A498 renal) of over 100 µM, a TGI (786-0 renal) of over 100 µM and a TGI (NCI-H23 lung) of over 100 µM. For the same compound, the TGI (MDA-N) was over 100 µM, the TGI (SF-295 CNS) was over 100 µM and the TGI (COLO 205 colon) was over 100 µM. It also gave a TGI (HS 578T breast) of over 100 µM, a TGI (PC-3 prostate) of over 100 µM and a TGI (MDA-MB-231 breast) of over 100 µM. It also gave a TGI (UO-31 renal) of over 100 µM, a TGI (A549 NSCLC) of over 100 µM and a TGI (BT-549 breast) of over 100 µM. For the same compound, the TGI (HL-60(TB) leukemia) was over 100 µM, the TGI (OVCAR-8 ovarian) was over 100 µM and the TGI (HOP-62 NSCLC) was over 100 µM. It also gave a TGI (CCRF-CEM leukemia) of over 100 µM, a TGI (SN12C renal) of over 100 µM and a TGI (SF-539 CNS) of over 100 µM. The TGI (EKVX NSCLC) was over 100 µM, the TGI (MOLT-4 leukemia) was over 100 µM and the TGI (IGROV1 ovarian) was over 100 µM. It also gave a TGI (OVCAR-3 ovarian) of over 100 µM, a TGI (SW-620 colon) of over 100 µM and a TGI (OVCAR-4 ovarian) of over 100 µM. The TGI (SK-MEL-5 melanoma) was over 100 µM, the TGI (M14 melanoma) was over 100 µM and the TGI (HCC-2998 colon) was over 100 µM. For the same compound, the TGI (NCI-H522 lung) was over 100 µM, the TGI (HCT-15 colon) was over 100 µM and the TGI (SNB-19 CNS) was over 100 µM. For the same compound, the TGI (CAKI-1 renal) was over 100 µM, the TGI (UACC-257 melanoma) was over 100 µM and the TGI (RPMI-8226 leukemia) was over 100 µM. The TGI (U251 CNS) was over 100 µM, the TGI (SK-OV-3 ovarian) was over 100 µM and the TGI (NCI/ADR-RES ovarian) was over 100 µM.

With COc1ccc(NS(=O)c2ccc(-c3ccccc3)cc2)cc1 (stereo not given) the TGI (NCI-H226 lung) was over 100 µM, the TGI (RXF 393 renal) was over 100 µM and the TGI (DU-145 prostate) was over 100 µM. For the same compound, the TGI (K-562 leukemia) was over 100 µM, the TGI (MCF7 breast) was over 100 µM and the TGI (SR leukemia) was over 100 µM. For the same compound, the TGI (NCI-H23 lung) was over 100 µM, the TGI (MDA-N) was over 100 µM and the TGI (HCT-116 colon) was over 100 µM. It also gave a TGI (NCI-H460 lung) of over 100 µM, a TGI (SF-295 CNS) of over 100 µM and a TGI (COLO 205 colon) of over 100 µM. It also gave a TGI (HS 578T breast) of 31.2 µM, a TGI (PC-3 prostate) of over 100 µM and a TGI (MDA-MB-231 breast) of over 100 µM. For the same compound, the TGI (UO-31 renal) was over 100 µM, the TGI (A549 NSCLC) was over 100 µM and the TGI (LOX IMVI melanoma) was over 100 µM. For the same compound, the TGI (HL-60(TB) leukemia) was over 100 µM, the TGI (OVCAR-8 ovarian) was over 100 µM and the TGI (HOP-62 NSCLC) was over 100 µM. For the same compound, the TGI (CCRF-CEM leukemia) was over 100 µM, the TGI (SN12C renal) was over 100 µM and the TGI (SF-539 CNS) was over 100 µM. The TGI (EKVX NSCLC) was over 100 µM, the TGI (MOLT-4 leukemia) was over 100 µM and the TGI (IGROV1 ovarian) was over 100 µM. For the same compound, the TGI (OVCAR-3 ovarian) was over 100 µM, the TGI (SW-620 colon) was over 100 µM and the TGI (MDA-MB-435) was over 100 µM. For the same compound, the TGI (SK-MEL-5 melanoma) was over 100 µM, the TGI (M14 melanoma) was over 100 µM and the TGI (HCC-2998 colon) was over 100 µM. For the same compound, the TGI (NCI-H522 lung) was over 100 µM, the TGI (HCT-15 colon) was over 100 µM and the TGI (KM12 colon) was over 100 µM. For the same compound, the TGI (SNB-19 CNS) was over 100 µM, the TGI (SF-268 CNS) was over 100 µM and the TGI (HT29 colon) was over 100 µM. For the same compound, the TGI (CAKI-1 renal) was over 100 µM, the TGI (UACC-257 melanoma) was over 100 µM and the TGI (SK-MEL-28 melanoma) was over 100 µM. It also gave a TGI (RPMI-8226 leukemia) of over 100 µM, a TGI (MALME-3M melanoma) of over 100 µM and a TGI (OVCAR-5 ovarian) of over 100 µM. The TGI (SNB-75 CNS) was 62.5 µM, the TGI (U251 CNS) was over 100 µM and the TGI (NCI/ADR-RES ovarian) was over 100 µM. It also gave a TGI (TK-10 renal) of over 100 µM and a TGI (ACHN renal) of over 100 µM.
